In patent US9296759B2, “Amino-oxazine and amino-dihydrothiazine compounds as beta-secretase modulators and methods of use” (AMGEN INC., priority 2011, dated 2016):
Where two headings read alike, the source gives them in different places.

Legend:
[1] = tested on: Aβ40 in conditioned medium of cells stably expressing Amyloid Precursor Protein (APP); experiment: In vitro BACE cell-based assay (HEK cell assay, Aβ40 sandwich ELISA); details: Homo sapiens, HEK293; average IC50, Aβ40, 24 h incubation
Outline: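 Secreted Aβ40 was quantified by sandwich ELISA (pAb40 capture, biotinylated 6E10 detection, Europium time-resolved fluorescence). IC50 derived from percent inhibition versus concentration.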

[2] = molecular target: BACE 1 (beta secretase enzyme) (Homo sapiens (Human), UniProt P56817); experiment: In vitro enzymatic BACE FRET assay; assay type: biochemical; details: average IC50
Outline: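 The enzyme was tested in 0.05 M acetate, pH 4.2, with 10% DMSO final and 100 uM genapol. The reaction was started with 50 nM quenched FRET peptide substrate, incubated one hour and stopped with Tris to neutral pH. Cleavage was read as fluorescence ([…]).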

Abeta 40 = experiment: In vivo inhibition of beta-secretase: Abeta 40 reduction in CSF and brain of the rat; details: 10 mpk, after 4 hrs
Excerpt: In Vivo Inhibition of Beta-Secretase
Several animal models, including mouse, rat, dog, and monkey, may be used to screen for inhibition of beta-secretase activity in vivo following administration of a test compound sample. Animals used in this invention can be wild type, transgenic, or gene knockout animals. For example, the Tg2576 mouse model, prepared and conducted as described in Hsiao et al., 1996, Science 274, 99-102, and other non-transgenic or gene knockout animals are useful to analyze in vivo inhibition of Amyloid beta peptide (Abeta) production in the presence of inhibitory test compounds. Generally, 2 to 18 month old Tg2576 mice, gene knockout mice or non-transgenic animals are administered test compounds formulated in vehicles, such as cyclodextran, phosphate buffers, hydroxypropyl methylcellulose or other suitable vehicles. One to twenty-four hours following the administration of compound, animals are sacrificed, and brains as well as cerebrospinal fluid (CSF) and plasma are removed for analysis of A-beta levels and drug or test compound concentrations (Dovey et al., 2001, Journal of Neurochemistry, 76, 173-181) Beginning at time 0, animals are administered by oral gavage, or other means of delivery such as intravenous injection, an inhibitory test compound of up to 100 mg/kg in a standard, conventional formulation, such as 2% hydroxypropyl methylcellulose, 1% Tween80. A separate group of animals receive 2% hydroxypropyl methylcellulose, 1% Tween80 alone, containing no test compound, and serve as a vehicle-control group. At the end of the test period, animals are sacrificed and brain tissues, plasma or cerebrospinal fluid are collected. Brains are either homogenized in 10 volumes (w/v) of 0.2% diethylamine (DEA) in 50 mM NaCl (Best et al., 2005, Journal of Pharmacology and Experimental Therapeutics, 313, 902-908), or in 10 volumes of 0.5% TritonX-100 in Tris-buffered saline (pH at about 7.6). Homogenates are centrifuged at 355,000 g, 4° C. for 30 minutes. CSF or brain supernatants are then analyzed for the presence of A-beta peptide by specific sandwich ELISA assays based on ECL (Electrochemiluminescence) technology. For example, rat Abeta40 is measured using biotinylated-4G8 (Signet) as a capture antibody and Fab40 (an in-house antibody specific to the C-terminal of Abeta40) as a detection antibody. For example, 4 hours after administration of 30 mg/kg oral dose of the test compound in 2% hydroxypropyl methylcellulose, 1% Tween80 (pH2.2) to 200 g male Sprague Dawley rats, amyloid beta peptide levels are measured for reduction by X % and Y % in cerebrospinal fluid and brain, respectively, when compared to the levels measured in the vehicle-treated rats.
• Oral: 2% HPMC, 1% Tween80, pH 2.2 • IV: 5% EtOH, 45% Propylene glycol in 5% Dextrose
The compounds of the invention may be shown to reduce the formation and/or deposition of amyloid beta peptide in the cerebrospinal fluid (CSF) as well as in the brain of a mouse or rat at either 3 mpk, 10 mpk or 30 mpk (mpk=mg compound per kg weight of the animal) dosing concentrations after 4 hrs.

Cathepsin D = Cathepsin D (Homo sapiens (Human), UniProt P07339); experiment: In vitro enzymatic Cat D (Cathepsin D) FRET assay; assay type: biochemical; details: average IC50
Outline: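 CHO-expressed recombinant enzyme in 0.05 M citrate pH 3.5, 5 mM CHAPS, 10% DMSO final; reaction started with 20 nM quenched-peptide FRET substrate (cleavage site spanned by fluorophore/quencher), 1 h incubation.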

[3] = people of the phase I trial; cited from earlier work
[4] = tested on: pigment epithelium of the rat's eye; details: higher compound dose given for three months; cited from earlier work
[5] = Abeta 40, rat CSF, read-out: % reduction of rat CSF levels at 10 pmk
[6] = Abeta 40, rat brain, read-out: % reduction of rat brain levels at 10 mpk

Chain of BACE 1 (beta secretase enzyme) (P56817 46-501): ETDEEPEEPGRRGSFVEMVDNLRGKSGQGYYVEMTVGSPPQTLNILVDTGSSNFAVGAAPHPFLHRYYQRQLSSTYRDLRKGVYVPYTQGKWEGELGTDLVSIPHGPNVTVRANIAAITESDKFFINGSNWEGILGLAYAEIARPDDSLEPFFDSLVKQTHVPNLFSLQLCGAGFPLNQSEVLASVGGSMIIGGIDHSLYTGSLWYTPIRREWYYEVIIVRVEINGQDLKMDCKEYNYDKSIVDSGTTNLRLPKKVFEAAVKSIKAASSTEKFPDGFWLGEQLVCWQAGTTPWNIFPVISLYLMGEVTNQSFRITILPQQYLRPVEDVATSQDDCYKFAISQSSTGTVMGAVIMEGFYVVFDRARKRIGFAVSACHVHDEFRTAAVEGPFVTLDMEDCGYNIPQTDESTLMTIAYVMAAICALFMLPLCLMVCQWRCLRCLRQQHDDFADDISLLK
Chain of Cathepsin D (P07339 65-412, species assumed): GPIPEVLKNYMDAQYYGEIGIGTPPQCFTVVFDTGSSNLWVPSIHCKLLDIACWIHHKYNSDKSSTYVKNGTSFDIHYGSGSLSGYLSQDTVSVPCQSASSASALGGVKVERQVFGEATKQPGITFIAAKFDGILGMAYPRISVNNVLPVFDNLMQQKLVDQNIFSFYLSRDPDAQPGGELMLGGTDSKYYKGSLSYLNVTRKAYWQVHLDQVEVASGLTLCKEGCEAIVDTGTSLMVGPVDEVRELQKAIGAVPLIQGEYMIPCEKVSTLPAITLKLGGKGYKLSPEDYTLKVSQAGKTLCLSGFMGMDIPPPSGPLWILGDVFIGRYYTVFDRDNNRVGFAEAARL

Compound `COc1ccc(C(=O)Nc2ccc3c(c2)[C@@]2(CCOC(N)=N2)c2cc(-c4cncc(F)c4)nc(F)c2O3)nc1` [Example 87, N-((5S)-2′-amino-1-fluoro-3-(5-fluoro-3-pyridinyl)-5′,6′-dihydrospiro[chromeno[2,3-c]pyridine-5,4′-[1,3]oxazin]-7-yl)-5-methoxy-2-pyridinecarboxamide] has an IC50 [1] of 0.5 nM, an IC50 [2] of 1.4 nM and an inhibition in vivo at 10 mg/kg (Abeta 40; [5]) of 75%. The inhibition in vivo at 10 mg/kg (Abeta 40; [6]) was 53% and the IC50 (Cathepsin D) was 256000 nM.

`Cc1nc(C(=O)Nc2ccc3c(c2)[C@@]2(CCOC(N)=N2)c2cc(-c4cncc(F)c4)nc(F)c2O3)cs1` [Example 88, N-((5S)-2′-amino-1-fluoro-3-(5-fluoro-3-pyridinyl)-5′,6′-dihydrospiro[chromeno[2,3-c]pyridine-5,4′-[1,3]oxazin]-7-yl)-2-methyl-1,3-thiazole-4-carboxamide] gave an IC50 [1] of 0.2 nM, an IC50 [2] of 0.6 nM and an inhibition in vivo at 10 mg/kg (Abeta 40; [5]) of 49%. For the same compound, the inhibition in vivo at 10 mg/kg (Abeta 40; [6]) was 27% and the IC50 (Cathepsin D) was 362000 nM.

`NC1=N[C@@]2(CCO1)c1cc(NC(=O)c3ccc(F)cn3)ccc1Oc1c2cc(-c2cncc(F)c2)nc1F` [Example 89, N-((5S)-2′-amino-1-fluoro-3-(5-fluoro-3-pyridinyl)-5′,6′-dihydrospiro[chromeno[2,3-c]pyridine-5,4′-[1,3]oxazin]-7-yl)-5-fluoro-2-pyridinecarboxamide] showed an IC50 [1] of 0.6 nM, an IC50 [2] of 1.6 nM and an inhibition in vivo at 10 mg/kg (Abeta 40; [5]) of 69%. It also gave an inhibition in vivo at 10 mg/kg (Abeta 40; [6]) of 46% and an IC50 (Cathepsin D) of 400000 nM.

For `COc1cnc(C(=O)Nc2ccc3c(c2)[C@@]2(CCOC(N)=N2)c2cc(-c4ccnc(F)c4)nc(F)c2O3)cn1` [Example 92, N-((5S)-2′-amino-1-fluoro-3-(2-fluoro-4-pyridinyl)-5′,6′-dihydrospiro[chromeno[2,3-c]pyridine-5,4′-[1,3]oxazin]-7-yl)-5-methoxy-2-pyrazinecarboxamide], the IC50 [1] was 0.9 nM, the IC50 [2] was 1.8 nM and the inhibition in vivo at 10 mg/kg (Abeta 40; [5]) was 79%. It also gave an inhibition in vivo at 10 mg/kg (Abeta 40; [6]) of 70% and an IC50 (Cathepsin D) of 400000 nM.

With `COc1ccc(C(=O)Nc2ccc3c(c2)[C@@]2(CCSC(N)=N2)c2cc(C4=CCOCC4)nc(F)c2O3)nc1` [Example 101, N-((5S)-2′-amino-3-(3,6-dihydro-2H-pyran-4-yl)-1-fluoro-5′,6′-dihydrospiro[chromeno[2,3-c]pyridine-5,4′-[1,3]thiazin]-7-yl)-5-methoxy-2-pyridinecarboxamide] the IC50 [1] was 0.7 nM, the IC50 [2] was 1.5 nM and the inhibition in vivo at 10 mg/kg (Abeta 40; [5]) was 76%. The inhibition in vivo at 10 mg/kg (Abeta 40; [6]) was 59% and the IC50 (Cathepsin D) was 198000 nM.

With `COc1cnc(C(=O)Nc2ccc3c(c2)[C@@]2(CCSC(N)=N2)c2cc(C4=CCCOC4)ncc2O3)cn1` [Example 104, N-((5S)-2′-amino-3-(5,6-dihydro-2H-pyran-3-yl)-5′,6′-dihydrospiro[chromeno[2,3-c]pyridine-5,4′-[1,3]thiazin]-7-yl)-5-methoxy-2-pyrazinecarboxamide] the IC50 [1] was 1 nM, the IC50 [2] was 3.1 nM and the inhibition in vivo at 10 mg/kg (Abeta 40; [5]) was 64%. It also gave an inhibition in vivo at 10 mg/kg (Abeta 40; [6]) of 43% and an IC50 (Cathepsin D) of 295000 nM.

`COc1ccc(C(=O)Nc2ccc3c(c2)[C@@]2(CCSC(N)=N2)c2cc(C4=CCCOC4)nc(F)c2O3)nc1` [Example 111, N-((5S)-2′-amino-3-(5,6-dihydro-2H-pyran-3-yl)-1-fluoro-5′,6′-dihydrospiro[chromeno[2,3-c]pyridine-5,4′-[1,3]thiazin]-7-yl)-5-methoxy-2-pyridinecarboxamide] gave an IC50 [1] of 0.8 nM, an IC50 [2] of 2.5 nM and an inhibition in vivo at 10 mg/kg (Abeta 40; [5]) of 76%. It also gave an inhibition in vivo at 10 mg/kg (Abeta 40; [6]) of 58% and an IC50 (Cathepsin D) of 569000 nM.

For `C[C@@]1(c2cc(-c3cncnc3)c(F)cc2F)CCSC(N)=N1` [LY 2811376], the eye assessments [3] is given as “did not show any abnormalities” and the retinal toxicity finding [4] is given as “ravaged the pigment epithelium of the rat's eye”.
